Data on twelve molecules can be found in patent US9085606B2, “Beta amino acid derivatives as integrin antagonists” (Saint Louis University, priority 2012, dated 2015).

A word on the IC50: it is the concentration that gives 50% inhibition.

Assay [1] concerns the target T1, Recombinant human integrin αvβ3 (Homo sapiens, UniProt P05106+P06756).
T1 construct: purchased R&D Systems 3050-AV
Description: Solid Phase Receptor Assay for αvβ3 Function. Conditions: binding to vitronectin-coated plate; read-out: αvβ3 SPRA IC50. As to the method: Solid Phase Receptor Assay for αvβ3 Function.
(§1) Wells were washed 3 times with 150 μL TBS+ and 150 μL of blocking buffer (TBS+ with 1% bovine serum albumin, Sigma A7906) were added. The plate was incubated for 1 hr at 37° C. and then washed 3× with TBS+ buffer. […] Compounds were diluted 1:100 into the integrin solution and then 50 μL added to empty wells of the washed vitronectin-coated plate according to a standard template with each sample repeated in triplicate. After incubation for two hours at room temperature, the plate was washed 3× with 150 μL of TBS+ buffer. To each well, 50 μL of biotinylated anti-αv antibody (R&D Systems, BAF1219) at 0.5 μg/mL in TBS+/0.1% BSA were added and the plate covered and incubated for 1 hr at room temperature. After washing the plate 3× with 150 μL of TBS+ buffer, 50 μL of streptavidin-conjugated horseradish peroxidase (R&D Systems, DY998) diluted in TBS+ blocking buffer were added to the wells and the plate incubated for 20 min at room temperature. The plate was washed 3× with TBS+ buffer followed by 50 μL of TMB substrate (Sigma, T4444) added to each well and the plate was incubated for 20 min at room temperature. The reaction was optionally stopped with 25 μL of Stop Solution (Sigma, S5689). Plates were read by colorimetric detection at 650 nm wavelength using a Tecan S afire II plate reader.

For assay [2], the target named is T2, Recombinant human integrin αvβ5 (Homo sapiens, UniProt P06756+P18084).
T2 construct: purchased R&D Systems 2528-AV
T2 sequence (P06756 31-992 limits assumed): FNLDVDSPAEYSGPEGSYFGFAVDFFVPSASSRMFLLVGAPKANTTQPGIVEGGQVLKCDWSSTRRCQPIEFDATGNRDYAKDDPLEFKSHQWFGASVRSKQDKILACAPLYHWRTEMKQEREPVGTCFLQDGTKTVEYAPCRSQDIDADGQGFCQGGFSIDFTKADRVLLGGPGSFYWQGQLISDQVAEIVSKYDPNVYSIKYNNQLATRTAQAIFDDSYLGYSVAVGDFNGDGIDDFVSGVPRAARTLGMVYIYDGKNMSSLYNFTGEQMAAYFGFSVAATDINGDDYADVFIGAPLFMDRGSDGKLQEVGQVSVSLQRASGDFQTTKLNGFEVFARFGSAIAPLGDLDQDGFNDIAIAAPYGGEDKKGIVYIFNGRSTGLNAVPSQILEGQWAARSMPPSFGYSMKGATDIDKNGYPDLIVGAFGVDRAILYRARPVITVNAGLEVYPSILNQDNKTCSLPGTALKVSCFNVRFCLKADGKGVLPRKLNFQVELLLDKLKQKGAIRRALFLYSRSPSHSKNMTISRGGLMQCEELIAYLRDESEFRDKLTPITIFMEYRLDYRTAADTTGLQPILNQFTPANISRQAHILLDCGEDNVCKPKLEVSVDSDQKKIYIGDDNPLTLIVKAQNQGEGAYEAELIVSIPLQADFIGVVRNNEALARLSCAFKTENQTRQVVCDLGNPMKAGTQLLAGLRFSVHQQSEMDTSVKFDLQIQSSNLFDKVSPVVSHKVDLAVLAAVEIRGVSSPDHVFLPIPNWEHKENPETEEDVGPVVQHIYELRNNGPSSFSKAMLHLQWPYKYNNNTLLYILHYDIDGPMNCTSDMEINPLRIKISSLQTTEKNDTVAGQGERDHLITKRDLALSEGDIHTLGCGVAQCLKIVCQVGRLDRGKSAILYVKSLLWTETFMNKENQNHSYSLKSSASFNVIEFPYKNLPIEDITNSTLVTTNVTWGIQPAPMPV
T2 sequence (P18084 24-719 limits assumed): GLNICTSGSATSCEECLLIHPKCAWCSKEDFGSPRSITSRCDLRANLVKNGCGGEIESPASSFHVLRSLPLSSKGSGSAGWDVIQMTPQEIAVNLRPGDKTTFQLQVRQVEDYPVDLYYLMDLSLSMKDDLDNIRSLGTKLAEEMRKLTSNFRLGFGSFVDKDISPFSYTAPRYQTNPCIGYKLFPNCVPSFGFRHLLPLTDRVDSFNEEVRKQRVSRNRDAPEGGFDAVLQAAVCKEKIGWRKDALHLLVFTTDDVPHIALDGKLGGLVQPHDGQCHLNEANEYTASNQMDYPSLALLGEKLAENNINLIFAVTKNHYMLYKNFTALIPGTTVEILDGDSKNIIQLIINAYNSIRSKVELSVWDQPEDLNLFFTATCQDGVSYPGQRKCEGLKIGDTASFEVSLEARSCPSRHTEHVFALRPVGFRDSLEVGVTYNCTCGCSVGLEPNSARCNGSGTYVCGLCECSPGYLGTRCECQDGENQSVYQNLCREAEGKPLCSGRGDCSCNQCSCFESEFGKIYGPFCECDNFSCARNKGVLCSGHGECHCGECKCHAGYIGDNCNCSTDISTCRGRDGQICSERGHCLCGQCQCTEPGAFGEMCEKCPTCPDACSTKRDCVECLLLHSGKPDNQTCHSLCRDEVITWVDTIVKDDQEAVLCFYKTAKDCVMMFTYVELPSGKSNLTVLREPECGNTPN
Description: Solid Phase Receptor Assay for αvβ5 Function. The following applies: binding to vitronectin-coated plate; read-out: αvβ5 SPRA IC50. As for the experimental part:
Solid Phase Receptor Assay for αvβ5 Function.
as §1, with “TBS+/0.1% BSA at 0.5 μg/mL were added” for “TBS+/0.1% BSA were added”, “peroxidase (R&D Systems DY998) diluted” for “peroxidase (R&D Systems, DY998) diluted”, “TMB substrate (Sigma T4444) added” for “TMB substrate (Sigma, T4444) added”, “the plate incubated for” for “the plate was incubated for”, “Stop Solution (Sigma S5689). Plates” for “Stop Solution (Sigma, S5689). Plates”, “a Tecan Safire II plate” for “a Tecan S afire II plate”

The target of assay [3] is T3, Recombinant human integrin αvβ6 (Homo sapiens, UniProt P06756+P18564).
T3 construct: purchased R&D Systems 3817-AV
T3 sequence (P06756 31-992 limits assumed): as the sequence (P06756 31-992 limits assumed) above
T3 sequence (P18564 22-707 limits assumed): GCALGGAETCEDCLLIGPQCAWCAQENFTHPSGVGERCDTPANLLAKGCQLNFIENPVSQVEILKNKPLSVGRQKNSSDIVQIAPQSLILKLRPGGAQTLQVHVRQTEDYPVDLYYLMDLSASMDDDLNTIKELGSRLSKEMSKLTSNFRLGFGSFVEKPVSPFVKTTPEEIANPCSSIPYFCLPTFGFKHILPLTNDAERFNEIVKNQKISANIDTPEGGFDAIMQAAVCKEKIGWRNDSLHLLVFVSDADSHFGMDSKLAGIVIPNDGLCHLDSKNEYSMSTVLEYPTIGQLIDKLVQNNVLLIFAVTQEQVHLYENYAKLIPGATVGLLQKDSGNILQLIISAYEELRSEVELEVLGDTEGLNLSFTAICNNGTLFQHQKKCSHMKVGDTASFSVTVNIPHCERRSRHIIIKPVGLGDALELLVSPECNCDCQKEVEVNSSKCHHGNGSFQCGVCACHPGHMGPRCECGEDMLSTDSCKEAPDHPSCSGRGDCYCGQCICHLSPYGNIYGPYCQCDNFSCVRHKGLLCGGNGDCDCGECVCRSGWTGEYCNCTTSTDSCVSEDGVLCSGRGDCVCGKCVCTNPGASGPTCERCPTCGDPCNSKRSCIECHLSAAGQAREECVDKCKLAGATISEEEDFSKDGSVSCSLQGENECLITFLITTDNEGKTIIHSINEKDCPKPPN
Description: Solid Phase Receptor Assay for αvβ6 Function. Conditions: binding to LAP-coated plate; read-out: αvβ6 SPRA IC50. As to the method:
Solid Phase Receptor Assay for αvβ6 Function.
Wells were washed 3 times with 150 μL TBS+, and 150 μL of blocking buffer (TBS+ with 1% bovine serum albumin, Sigma A7906) were added. The plate was incubated for 1 hr at 37° C., and then washed 3× with TBS+ buffer. […] Compounds were diluted 1:100 into the integrin solution and then 50 μL added to empty wells of the washed LAP-coated plate according to a standard template with each sample repeated in triplicate. After incubation for two hours at room temperature, the plate was washed 3× with 150 μL of TBS+ buffer. To each well, 50 μL of biotinylated anti-αv antibody (R&D Systems, BAF1219) at 0.5 μg/mL in TBS+/0.1% BSA were added and the plate was covered and incubated for 1 hr at room temperature. After washing the plate 3× with 150 μL of TBS+ buffer, 50 μL of streptavidin-conjugated horseradish peroxidase (R&D Systems, DY998) diluted in TBS+ blocking buffer were added to the wells and the plate incubated for 20 min at room temperature. The plate was washed 3× with TBS+ buffer followed by 50 μL of TMB substrate (Sigma T4444) added to each well and the plate incubated for 20 min at room temperature. The reaction was optionally stopped with 25 μL of Stop Solution (Sigma S5689). Plates were read by colorimetric detection at 650 nm wavelength using a Tecan Safire II plate reader.

For assay [4], the target named is T4, Recombinant human integrin αvβ1 (Homo sapiens, UniProt P05556+P06756).
T4 construct: purchased R&D Systems 6579-AV
T4 sequence (P06756 31-992 limits assumed): as the sequence (P06756 31-992 limits assumed) above
T4 sequence (P05556 21-728 limits assumed): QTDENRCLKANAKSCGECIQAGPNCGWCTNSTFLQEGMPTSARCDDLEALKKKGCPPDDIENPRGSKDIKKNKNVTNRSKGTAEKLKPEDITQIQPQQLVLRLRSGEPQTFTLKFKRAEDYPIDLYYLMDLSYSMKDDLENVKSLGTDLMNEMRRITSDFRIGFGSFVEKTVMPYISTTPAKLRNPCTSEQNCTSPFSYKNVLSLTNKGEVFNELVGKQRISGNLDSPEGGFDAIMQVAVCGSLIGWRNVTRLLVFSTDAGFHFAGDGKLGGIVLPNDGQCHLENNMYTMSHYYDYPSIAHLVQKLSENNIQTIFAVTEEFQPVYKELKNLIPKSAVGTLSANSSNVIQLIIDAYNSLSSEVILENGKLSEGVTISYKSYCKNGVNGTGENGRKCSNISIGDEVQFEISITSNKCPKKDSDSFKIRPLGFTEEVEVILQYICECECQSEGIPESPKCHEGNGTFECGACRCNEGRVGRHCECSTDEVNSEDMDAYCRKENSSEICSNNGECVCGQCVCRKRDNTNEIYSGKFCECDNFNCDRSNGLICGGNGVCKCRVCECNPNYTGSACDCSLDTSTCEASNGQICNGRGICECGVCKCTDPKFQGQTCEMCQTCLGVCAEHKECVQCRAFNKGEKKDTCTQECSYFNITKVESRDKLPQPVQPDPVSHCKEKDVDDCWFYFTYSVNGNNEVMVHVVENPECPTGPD
Description: Solid Phase Receptor Assay for αvβ1 Function. The following applies: binding to fibronectin-coated plate; read-out: αvβ1 SPRA IC50. As for the experimental part:
Solid Phase Receptor Assay for αvβ1 Function.
Wells were washed 3 times with 150 μl TBS+ and 150 μL of blocking buffer (TBS+ with 1% bovine serum albumin, Sigma A7906) were added. The plate was incubated for 1 hr at 37° C. and then washed 3× with TBS+ buffer. […] Compounds were diluted 1:100 into the integrin solution and 50 μL added to empty wells of the washed fibronectin-coated plate according to a standard template with each sample repeated in triplicate. After incubation for two hours at room temperature, the plate was washed 3× with 150 μL of TBS+ buffer. To each well, 50 μL of biotinylated anti-αv antibody (R&D Systems, BAF1219) at 1 μg/mL in TBS+/0.1% BSA were added and the plate covered and incubated for 1 hr at room temperature. After washing the plate 3× with 150 μL of TBS+ buffer, 50 μL of streptavidin-conjugated horseradish peroxidase (R&D Systems, DY998) diluted in TBS+ blocking buffer were added to the wells and the plate incubated for 20 min at room temperature. The plate was washed 3× with TBS+ buffer followed by 50 μL of TMB substrate (Sigma, T4444) added to each well and the plate incubated for 20 min at room temperature. The reaction was optionally stopped with 25 μL of Stop Solution (Sigma S5689). Plates were read by colorimetric detection at 650 nm wavelength using a Tecan Safire II plate reader.

Molecules are shown by their SMILES.

T1 sequence (P06756 31-992 limits assumed): as the sequence (P06756 31-992 limits assumed) above
T1 sequence (P05106 27-718 limits assumed): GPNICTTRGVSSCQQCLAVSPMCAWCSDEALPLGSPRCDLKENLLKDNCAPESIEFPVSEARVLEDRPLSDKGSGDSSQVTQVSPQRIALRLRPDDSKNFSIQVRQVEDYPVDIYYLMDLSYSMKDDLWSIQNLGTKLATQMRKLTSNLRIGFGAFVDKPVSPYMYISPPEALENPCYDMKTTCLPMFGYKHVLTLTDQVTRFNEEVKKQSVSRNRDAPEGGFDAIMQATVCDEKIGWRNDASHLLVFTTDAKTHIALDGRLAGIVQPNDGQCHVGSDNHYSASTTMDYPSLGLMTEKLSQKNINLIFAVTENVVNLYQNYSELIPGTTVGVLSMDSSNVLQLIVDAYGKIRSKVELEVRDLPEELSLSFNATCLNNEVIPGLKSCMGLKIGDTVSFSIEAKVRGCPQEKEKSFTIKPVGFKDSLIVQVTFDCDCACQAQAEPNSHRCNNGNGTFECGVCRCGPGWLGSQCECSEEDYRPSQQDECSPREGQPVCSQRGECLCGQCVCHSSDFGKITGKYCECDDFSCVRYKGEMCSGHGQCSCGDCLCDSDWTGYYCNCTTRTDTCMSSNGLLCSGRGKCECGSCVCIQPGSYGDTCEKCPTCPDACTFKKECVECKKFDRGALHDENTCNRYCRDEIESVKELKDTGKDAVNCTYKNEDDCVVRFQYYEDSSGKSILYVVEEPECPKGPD

Consider `CC(C)(C)c1cc(Br)c(O)c([C@H](CC(=O)O)NC(=O)CNC(=O)c2cc(O)cc(NC3=NCC(O)CN3)c2)c1` (stereo partly drawn) [Example 1, (3S)-3-(3-bromo-5-(tert-butyl)-2-hydroxyphenyl)-3-(2-(3-hydroxy-5-((5-hydroxy-1,4,5,6-tetrahydropyrimidin-2-yl)amino)benzamido)acetamido)propanoic acid], for which the IC50 in assay [1] turned out to be 5.1 nM; in assay [2] it was 47 nM; in assay [3], 0.4 nM; in assay [4] it was 2.1 nM.
As to `CC(C)(C)c1cc(Br)cc([C@H](CC(=O)O)NC(=O)CNC(=O)c2cc(O)cc(NC3=NCC(O)CN3)c2)c1O` (stereo partly drawn) [Example 2, (3S)-3-(5-bromo-3-(tert-butyl)-2-hydroxyphenyl)-3-(2-(3-hydroxy-5-((5-hydroxy-1,4,5,6-tetrahydropyrimidin-2-yl)amino)benzamido)acetamido)propanoic acid], the IC50 in assay [1] turned out to be 1.8 nM; in assay [2] it was 1 nM; in assay [3], 0.7 nM; in assay [4], 2.2 nM.
Turning to `CC(C)(O)c1cc(Br)cc([C@H](CC(=O)O)NC(=O)CNC(=O)c2cc(O)cc(NC3=NCC(O)CN3)c2)c1` (stereo partly drawn) [Example 3, (3S)-3-(3-bromo-5-(2-hydroxypropan-2-yl)phenyl)-3-(2-(3-hydroxy-5-((5-hydroxy-1,4,5,6-tetrahydropyrimidin-2-yl)amino)benzamido)acetamido)propanoic acid], the 50% inhibitory concentration (IC50) in assay [1] is 2 nM; in assay [2], 0.7 nM; in assay [3], 0.7 nM; in assay [4], 2.2 nM.
Take `CC(C)(O)c1cc(Cl)cc([C@H](CC(=O)O)NC(=O)CNC(=O)c2cc(O)cc(NC3=NCC(O)CN3)c2)c1` (stereo partly drawn) [Example 4, (3S)-3-(3-chloro-5-(2-hydroxypropan-2-yl)phenyl)-3-(2-(3-hydroxy-5-((5-hydroxy-1,4,5,6-tetrahydropyrimidin-2-yl)amino)benzamido)acetamido)propanoic acid]: the IC50 was determined as 2.3 nM in assay [1], 0.4 nM in assay [2], 0.5 nM in assay [3] and 1.7 nM in assay [4].
In the same order, the values of `CC(C)(C)c1cc(Br)cc([C@H](CC(=O)O)NC(=O)CNC(=O)c2cccc(NC(=N)N)c2)c1` [Example 5, (S)-3-(3-bromo-5-(tert-butyl)phenyl)-3-(2-(3-guanidinobenzamido)acetamido) propanoic acid] are 2.6 nM, 1.6 nM, 0.6 nM and 3.2 nM.
Turning to `CC(C)(C)c1cc(Br)cc([C@H](CC(=O)O)NC(=O)CNC(=O)c2cncc(NC(=N)N)c2)c1` [Example 6, (S)-3-(3-bromo-5-(tert-butyl)phenyl)-3-(2-(5-guanidinonicotinamido)acetamido) propanoic acid], the half-maximal inhibitory concentration (IC50) in assay [1] came out at 3.5 nM; in assay [2], 2.2 nM; in assay [3] it was 0.5 nM; in assay [4], 4.7 nM.
The corresponding values for `CC(C)(C)c1cc(Br)cc([C@H](CC(=O)O)NC(=O)CNC(=O)c2cccc(NC3=NCCN3)c2)c1` [Example 7, (S)-3-(3-bromo-5-(tert-butyl)phenyl)-3-(2-(3-((4,5-dihydro-1H-imidazol-2-yl)amino)benzamido)acetamido)propanoic acid] are 1.3 nM, 0.5 nM, 0.2 nM and 2.7 nM.
In the same order, the values of `CC(C)(C)c1cc(Br)cc([C@H](CC(=O)O)NC(=O)CNC(=O)c2cncc(NC3=NCC(O)CN3)c2)c1` (stereo partly drawn) [Example 8, (3S)-3-(3-bromo-5-(tert-butyl)phenyl)-3-(2-(5-((5-hydroxy-1,4,5,6-tetrahydropyrimidin-2-yl)amino)nicotinamido)acetamido)propanoic acid] are 1.5 nM, 0.5 nM, 0.5 nM and 3 nM.
The corresponding values for `CC(C)(C)c1cc(Br)cc([C@H](CC(=O)O)NC(=O)CNC(=O)c2cc(O)cc(NC3=NCCN3)c2)c1` [Example 9, (S)-3-(3-bromo-5-(tert-butyl)phenyl)-3-(2-(3-((4,5-dihydro-1H-imidazol-2-yl)amino)-5-hydroxybenzamido)acetamido)propanoic acid] are 2.9 nM, 1.2 nM, 0.5 nM and 2.4 nM.
Turning to `CC(C)(C)c1cc([C@H](CC(=O)O)NC(=O)CNC(=O)c2cncc(NC(=N)N)c2)cc(C(C)(C)C)c1` [Example 10, (S)-3-(3,5-di-tert-butylphenyl)-3-(2-(5-guanidinonicotinamido)acetamido)propanoic acid], the IC50 in assay [1] was found to be 172 nM; in assay [2], 71 nM; in assay [3] it was 1.2 nM; in assay [4], 2.1 nM.
Take `CC(C)(C#N)c1cc(Br)cc([C@H](CC(=O)O)NC(=O)CNC(=O)c2cc(O)cc(NC3=NCC(O)CN3)c2)c1` (stereo partly drawn) [Example 11, (3S)-3-(3-bromo-5-(2-cyanopropan-2-yl)phenyl)-3-(2-(3-hydroxy-5-((5-hydroxy-1,4,5,6-tetrahydropyrimidin-2-yl)amino)benzamido)acetamido)propanoic acid]: the IC50 came to 3.4 nM in assay [1], 0.7 nM in assay [2], 0.5 nM in assay [3] and 2.8 nM in assay [4].
On to `CC(C)(C)c1cc(C#N)cc([C@H](CC(=O)O)NC(=O)CNC(=O)c2cc(O)cc(NC3=NCC(O)CN3)c2)c1` (stereo partly drawn) [Example 12, (3S)-3-(3-(tert-butyl)-5-cyanophenyl)-3-(2-(3-hydroxy-5-((5-hydroxy-1,4,5,6-tetrahydro-pyrimidin-2-yl)amino)benzamido)acetamido)propanoic acid], for which the IC50 in assay [1] was found to be 2.8 nM; in assay [2], 0.2 nM; in assay [3] it was 0.4 nM; in assay [4], 2 nM.
